molecular target: T1, RORgT (Homo sapiens, UniProt P51449); assay: RORgT Gal4 Luciferase Reporter Gene Assay; format: cell-based; details: engineered Jurkat cells overexpressing RORgT (LBD or full length) with Gal4 Luc reporter; 18 hours at 37° C.; 40 μM to 0.67 nM; read-out: RORg_GAL4 EC50
T1 construct: Gal4 (fusion partner); expressed in transfected cells; host or cells: engineered Jurkat cells (Jurkat pEx/Gal/hRORγ CLBD/HYG pG5luc/blast)
T1 sequence (P51449 267-516): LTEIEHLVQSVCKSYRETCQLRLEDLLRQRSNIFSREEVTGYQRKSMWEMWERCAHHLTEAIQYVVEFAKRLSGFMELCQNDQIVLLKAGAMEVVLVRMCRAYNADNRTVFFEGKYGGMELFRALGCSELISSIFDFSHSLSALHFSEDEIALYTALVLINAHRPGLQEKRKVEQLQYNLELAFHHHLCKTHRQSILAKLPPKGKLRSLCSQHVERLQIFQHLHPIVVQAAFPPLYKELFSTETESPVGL
Method in brief: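 Cells exposed to compound 18 hours at 37° C, then lysed for luciferase luminescence. Inhibition of constitutive activity expressed as percent reduction of signal window relative to a control compound.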

Structure (SMILES) | EC50 [nM]
COc1ncc(Oc2c(Cl)ccc(C(=O)NCc3cccc(S(C)(=O)=O)c3)c2Cl)cc1C(C)C [Example 138] | 225
CC(C)c1cc(F)cc(Oc2c(Cl)ccc(C(=O)NCc3cccc(S(C)(=O)=O)c3)c2Cl)c1 [Example 139] | 187
COc1ncc(Oc2c(Cl)ccc(NC(=O)Cc3cccc(S(C)(=O)=O)c3)c2Cl)cc1C(C)C [Example 141] | 182
COc1ncc(Oc2c(Cl)ccc(C(=O)NCC3CCN(S(C)(=O)=O)CC3)c2Cl)cc1C(C)(C)F [Example 153] | 195
COc1ccc(Oc2c(Cl)cc(C(=O)NCc3cnc(C)cn3)cc2Cl)cc1C(C)C [Example 155] | 4750
COc1ccc(Oc2c(Cl)cc(C(=O)NCc3ccc(S(N)(=O)=O)cc3)cc2Cl)cc1C(C)C [Example 156] | 1930
CCS(=O)(=O)c1ccccc1CNC(=O)c1cc(Cl)c(Oc2ccc(OC)c(C(C)C)c2)c(Cl)c1 [Example 157] | 939
COc1ccc(Oc2c(Cl)cc(C(=O)NCc3ccc(S(C)(=O)=O)cc3)cc2Cl)cc1C(C)C [Example 158] | 499
CCS(=O)(=O)N[C@@H]1CCN(CC(=O)Nc2cc(Cl)c(Oc3ccc(OC)c(C(C)C)c3)c(Cl)c2)C1 [Example 159] | 377
COc1ccc(Oc2c(Cl)cc(NC(=O)CN3CC[C@@H](NS(C)(=O)=O)C3)cc2Cl)cc1C(C)C [Example 160] | 325
COc1ccc(Oc2c(Cl)cc(NC(=O)CN3CC[C@@H](NS(=O)(=O)C4CC4)C3)cc2Cl)cc1C(C)C [Example 161] | 2330
CCS(=O)(=O)NC1CN(CC(=O)Nc2cc(Cl)c(Oc3ccc(OC)c(C(C)C)c3)c(Cl)c2)C1 [Example 162] | 220
COc1ccc(Oc2c(Cl)cc(NC(=O)CN3CC(NS(C)(=O)=O)C3)cc2Cl)cc1C(C)C [Example 163] | 340
COc1ccc(Oc2c(Cl)cc(NC(=O)CN3CC[C@H](NS(C)(=O)=O)C3)cc2Cl)cc1C(C)C [Example 165] | 182
COc1ccc(Oc2c(Cl)cc(NC(=O)CN3CCC[C@@H](NS(=O)(=O)C4CC4)C3)cc2Cl)cc1C(C)C [Example 166] | 424
CCS(=O)(=O)N[C@@H]1CCCN(CC(=O)Nc2cc(Cl)c(Oc3ccc(OC)c(C(C)C)c3)c(Cl)c2)C1 [Example 167] | 245
COc1ccc(Oc2c(Cl)cc(NC(=O)CN3CCC[C@H](NS(C)(=O)=O)C3)cc2Cl)cc1C(C)C [Example 168] | 270
COc1ccc(Oc2c(Cl)cc(NC(=O)CN3CCC(NS(C)(=O)=O)CC3)cc2Cl)cc1C(C)C [Example 169] | 93
COc1ccc(Oc2c(Cl)cc(NC(=O)CN3CC[C@H](NS(=O)(=O)C4CC4)C3)cc2Cl)cc1C(C)C [Example 170] | 370
COc1ccc(Oc2c(Cl)cc(NC(=O)CN3CCC[C@@H](NS(C)(=O)=O)C3)cc2Cl)cc1C(C)C [Example 171] | 2590
CCS(=O)(=O)NC1CCN(CC(=O)Nc2cc(Cl)c(Oc3ccc(OC)c(C(C)C)c3)c(Cl)c2)CC1 [Example 173] | 265

Structure (SMILES) | EC50 [nM]
COc1ccc(Oc2c(Cl)cc(NC(=O)CN3CC(NS(=O)(=O)C4CC4)C3)cc2Cl)cc1C(C)C [Example 174] | 286
COc1ccc(Oc2c(Cl)ccc(CNC(=O)CC3CCN(C(=O)C(F)(F)F)CC3)c2Cl)cc1C(C)C [Example 175] | 345
COc1ccc(Oc2c(Cl)ccc(C(=O)NCCc3nc4ccccc4s3)c2Cl)cc1C(C)C [Example 178] | 336
COc1ccc(Oc2c(Cl)ccc(C(=O)N3CCc4ccccc4C3)c2Cl)cc1C(C)C [Example 179] | 1130
COc1ccc(Oc2c(Cl)ccc(C(=O)N3CCC(O)(c4ccccc4)CC3)c2Cl)cc1C(C)C [Example 180] | 325
COc1ccc(Oc2c(Cl)ccc(C(=O)n3nc(C)cc3CN)c2Cl)cc1C(C)C [Example 181] | 214
COCCN(C)C(=O)c1ccc(Cl)c(Oc2ccc(OC)c(C(C)C)c2)c1Cl [Example 182] | 355
COCCNC(=O)c1ccc(Cl)c(Oc2ccc(OC)c(C(C)C)c2)c1Cl [Example 183] | 284
COc1ccc(Oc2c(Cl)ccc(C(=O)N3CCCCC3)c2Cl)cc1C(C)C [Example 184] | 246
CCS(=O)(=O)N1CCC(CC(=O)NCc2ccc(Cl)c(Oc3ccc(OC)c(C(C)C)c3)c2Cl)CC1 [Example 187] | 522
COc1ccc(Oc2c(Cl)ccc(CNC(=O)COC3CCN(S(C)(=O)=O)CC3)c2Cl)cc1C(C)C [Example 188] | 383
CCS(=O)(=O)N1CC2(CN(CC(=O)Nc3cc(Cl)c(Oc4ccc(OC)c(C(C)C)c4)c(Cl)c3)C2)C1 [Example 190] | 989
COc1ccc(Oc2c(Cl)ccc(C(=O)N3CCC(c4ccc(Cl)cc4)CC3)c2Cl)cc1C(C)C [Example 191] | 128
COc1ccc(Oc2c(Cl)ccc(C(=O)NC3CCN(Cc4ccccc4)C3)c2Cl)cc1C(C)C (stereo not drawn) [Example 193] | 866
COc1ccc(Oc2c(Cl)ccc(C(=O)NCc3ccccn3)c2Cl)cc1C(C)C [Example 194] | 6460
COc1ccc(Oc2c(Cl)ccc(C(=O)NCc3ccc(N(C)C)cc3)c2Cl)cc1C(C)C [Example 195] | 616
COc1ccc(Oc2c(Cl)ccc(C(=O)N3CCN(C)CC3)c2Cl)cc1C(C)C [Example 196] | 200
COc1ccc(Oc2c(Cl)ccc(C(=O)NC3CCC(O)CC3)c2Cl)cc1C(C)C (stereo not drawn) [Example 197] | 860
COc1ccc(Oc2c(Cl)ccc(C(=O)NCc3cccc(Cl)c3)c2Cl)cc1C(C)C [Example 198] | 872
COc1ccc(Oc2c(Cl)ccc(C(=O)NCCc3ccccc3Cl)c2Cl)cc1C(C)C [Example 199] | 3890

Now those with a lower EC50, led by results:

EC50 [nM] | Structure (SMILES)
90 | COc1ccc(Oc2c(Cl)ccc(CNC(=O)CN3CCN(S(C)(=O)=O)CC3)c2Cl)cc1C(C)C [Example 186]
89 | COc1ccc(Oc2c(Cl)ccc(C(=O)N3CCC(N(C)C)CC3)c2Cl)cc1C(C)C [Example 192]
83 | COc1ccc(Oc2c(Cl)ccc(C(=O)N3CCC(c4ccccc4)CC3)c2Cl)cc1C(C)C [Example 176]
80 | CCS(=O)(=O)N[C@H]1CCN(CC(=O)Nc2cc(Cl)c(Oc3ccc(OC)c(C(C)C)c3)c(Cl)c2)C1 [Example 164]
71 | CC(C)c1cc(F)cc(Oc2c(Cl)ccc(C(=O)NC(C)c3ccc(S(C)(=O)=O)cc3)c2Cl)c1 (stereo not drawn) [Example 142]
49 | CCS(=O)(=O)N[C@H]1CCCN(CC(=O)Nc2cc(Cl)c(Oc3ccc(OC)c(C(C)C)c3)c(Cl)c2)C1 [Example 172]
40 | COc1ccc(Oc2c(Cl)ccc(C(=O)N3CCC(O)CC3)c2Cl)cc1C(C)C [Example 189]
28 | COc1ncc(Oc2c(Cl)ccc(CNC(=O)c3ccc(S(N)(=O)=O)cc3)c2Cl)cc1C(C)C [Example 146]
28 | CCS(=O)(=O)N1CCN(CC(=O)NCc2ccc(Cl)c(Oc3ccc(OC)c(C(C)C)c3)c2Cl)CC1 [Example 185]
15 | CC(C)c1cc(F)cc(Oc2c(Cl)ccc(CNC(=O)c3ccc(S(C)(=O)=O)cc3)c2Cl)c1 [Example 149]
14 | COc1ncc(Oc2c(Cl)ccc(C(=O)NC(C)c3ccc(S(C)(=O)=O)cc3)c2Cl)cc1C(C)C (stereo not drawn) [Example 137]
13 | CC(C)c1cc(F)cc(Oc2c(Cl)ccc(C(=O)NC(C)c3ccc(S(C)(=O)=O)cc3)c2Cl)c1 (stereo not drawn) [Example 136]
11.5 | COc1ncc(Oc2c(Cl)ccc(C(=O)NC(C)c3ccc(S(C)(=O)=O)cc3)c2Cl)cc1C(C)C (stereo not drawn) [Example 143]
11 | COc1ncc(Oc2c(Cl)ccc(C(=O)NC(C)c3ccc(S(C)(=O)=O)cc3)c2Cl)cc1C(C)C (stereo not drawn) [Example 135]
9.9 | CC(C)c1cc(F)cc(Oc2c(Cl)ccc(CNC(=O)C3CCN(S(N)(=O)=O)CC3)c2Cl)c1 [Example 151]
9.6 | COc1ncc(Oc2c(Cl)ccc(CNC(=O)C3CCN(S(N)(=O)=O)CC3)c2Cl)cc1C(C)C [Example 147]
9.3 | CC(C)c1cc(F)cc(Oc2c(Cl)ccc(C(=O)NC(C)c3ccc(S(C)(=O)=O)cc3)c2Cl)c1 (stereo not drawn) [Example 140]
8.5 | COc1ncc(Oc2c(Cl)ccc(CNC(=O)c3ccc(S(C)(=O)=O)cc3)c2Cl)cc1C(C)C [Example 145]
8.2 | CC(C)c1cc(F)cc(Oc2c(Cl)ccc(CNC(=O)c3ccc(S(N)(=O)=O)cc3)c2Cl)c1 [Example 150]
6.6 | COc1ncc(Oc2c(Cl)ccc(CNC(=O)C3CCN(S(C)(=O)=O)CC3)c2Cl)cc1C(C)C [Example 144]
6.6 | COc1ncc(Oc2c(Cl)ccc(C(=O)NCc3ccc(S(N)(=O)=O)cc3)c2Cl)cc1C(C)(C)F [Example 154]
6.3 | CC(C)c1cc(Oc2c(Cl)ccc(C(=O)N3CCC4(CC3)CN(S(C)(=O)=O)C4)c2Cl)ccc1F [Example 132]
5.5 | CC(C)c1cc(F)cc(Oc2c(Cl)ccc(NC(=O)CC3CCN(S(C)(=O)=O)CC3)c2Cl)c1 [Example 130]
4.6 | C=C(c1cc(Oc2c(Cl)cc(NC(=O)CC3CCN(S(C)(=O)=O)CC3)cc2Cl)cnc1OC)C(F)(F)F [Example 133]
4 | CC(C)c1cc(F)cc(Oc2c(Cl)ccc(CNC(=O)C3CCN(S(C)(=O)=O)CC3)c2Cl)c1 [Example 148]
3.2 | COc1ncc(Oc2c(Cl)cc(NC(=O)CC3CCN(S(C)(=O)=O)CC3)cc2Cl)cc1C(C)C(F)(F)F (stereo not drawn) [Example 134]
2.7 | CC(C)c1cc(Oc2c(Cl)ccc(C(=O)NCc3ccc(S(C)(=O)=O)cc3)c2Cl)ccc1F [Example 131]
2.5 | COc1ncc(Oc2c(Cl)ccc(C(=O)NCc3ccc(S(C)(=O)=O)cc3)c2Cl)cc1C(C)(C)F [Example 152]

Reference: patent US20220306630A1, “AGONISTS OF ROR GAMMAt” (BRISTOL-MYERS SQUIBB COMPANY, priority 2019, published 2022)
